Experimental data taken from patent US12497408B2, “Tetracyclic compounds and methods for the treatment of Zika virus infection” (priority 2021, dated 2025).

system: ZIKV; test: ZIKV reporter virus-based antiviral screening on Huh7 cells; assay type: cell-based, Zika virus; conditions: Zika virus, Huh-7, 48 h, Huh7 cells infected with recombinant luciferase reporter ZIKV (MOI about 0.1), luciferase signal
Description: Protocol for ZIKV reporter virus-based antiviral screening on Huh7 cells:
• Human hepatocyte-derived carcinoma cell line (Huh7) 2. Reagents • ViviRen™ Live Cell Substrate (Promega, Cat #E6492) or Nano Glo assay system (Promega: N1130) • White opaque 96-well TC-treated microplates (Corning, Cat #3916) • 96-well Clear V-Bottom TC-treated Microplate (Corning, Cat #3894) • Complete cell culture media: DMEM (Gibco, Cat #10569) supplemented with 10% FBS (HyClone, Cat #SH30071.03IH25-40)+1% MEM Non-Essential Amino Acids Solution 100×(Gibco, Cat #11140050)+1% Penicillin-Streptomycin (10,000 U/mL) (Gibco, Cat #15140122). • Assay media: DMEM media (Gibco, Cat #31053028) supplemented with 2% FBS, 2% GlutaMAX™ Supplement (Gibco Cat #35050061), 1% Sodium Pyruvate solution (Gibco, Cat #11360070), 1% MEM Non-Essential Amino Acids Solution 100× and 1% Penicillin-Streptomycin (10,000 U/mL). • Trypsin-EDTA solution (Gibco, Cat #25200056) 3. Virus • Recombinant ZIKV strain with Renilla luciferase gene (strain FSS-Rlu) or Nano luciferase gene (Strain PRV-Nano, Dakar-Nano) 4. Instruments • BioTek Cytation 5 or other plate-readers for chemiluminescence detection model. • Eppendorf plate centrifuge • Plate shaker • Eppendorf multichannel pipettes Procedures Day 1: Preparation of Cells • Human hepatocyte-derived carcinoma cell line (Huh7) cells were detached from a T-175 flask by using a Trypsin-EDTA solution. The detached cells were suspended in complete culture media in a sterile 50-ml conical tube. • The 50-ml conical tube was centrifuged at 1200×rpm for 3 min at room temperature. • The cells were resuspended in assay media. The cell numbers were counted, and the cells diluted to a density of 3×10^5 cells/ml. • The cells were plated at 50 μl cells per well in White opaque 96-well plates (assay plates). Gently shake the plates to ensure cells to attach to the plate evenly. • The plated cells were incubated in a humidified incubator (37° C. with 5% CO2). Day 2: Infection • 1) Nine serial (2-fold or 3-fold) concentrated compounds were prepared using 90% DMSO solution and DMSO controls in a clear V-bottom 96-well plate (compound plate). • For example:
• 2) The reporter virus stock was diluted to a concentration of 3×10^4 FFU (FFU: focus-forming unit)/ml using the assay media. 200 μl diluted virus per well was aliquoted into a clear V-bottom 96-well plate (mixing plate). • 3) 1 μl above 400×concentrated compound dilutions was added from the compound plate to each well of the mixing plate. The plates were shaken on a plate shaker for 5 min. • 4) 50 μl compound-virus mixture was added into each well of the assay plates (the MOI is about 0.1). The plates were shaken gently by mixing the virus evenly. • An example of the format for assay plate:
• control. • 5) The plates were centrifuged at 1000 rpm for 15 s. • 6) The plates were incubated at 37° C. with 5% CO2 in a humidified incubator for 48 hrs. Day 4: Read Luciferase Signals • 7) The ViviRen™ Live Cell Substrate was diluted in assay media for 3000× folds. 25 μl of diluted substrates was added into each well of the assay plates. • For Nano-Glo assay system, 50 μl diluted substrates (50×fold diluted from the stock in assay buffer) were added. • 8) The plates were incubated at room temperature for 5 min. • 9) Optimally, cell viability is measured using the Promega Cell-titer Glo kit (only used when ZIKV-Rlu was used for infection). • 10) Luciferase signals were read using the Cytation 5 with gain value of 120-150. Data Analysis • a. The luciferase signals from DMSO-treated groups (un-treated controls) were set as 100%. The relative luciferase signals were obtained by normalizing the luciferase signals from each dilution-treated group to that of the controls. • b.

COC(=O)N[C@H](C(=O)N1CCCC[C@H]1c1nc(Cl)c(-c2cc3c4c(c2)OCc2cc(-c5[nH]c([C@@H]6CCCCN6C(=O)[C@@H](NC(=O)OC)C(C)C)nc5Cl)cc(c2-4)OC3)[nH]1)C(C)C [Compound 13, dimethyl ((2S,2′S)-((2S,2′S)-((5,10-dihydrochromeno[5,4,3-cde]chromene-2,7-diyl)bis(4-chloro-1H-imidazole-5,2-diyl))bis(piperidine-2,1-diyl))bis(3-methyl-1-oxobutane-1,2-diyl))dicarbamate] and CC[C@H](C)[C@H](NC(=O)OC)C(=O)N1CCCC[C@H]1c1nc(Cl)c(-c2cc3c4c(c2)OCc2cc(-c5[nH]c([C@@H]6CCCCN6C(=O)[C@@H](NC(=O)OC)[C@@H](C)CC)nc5Cl)cc(c2-4)OC3)[nH]1 [Compound 14, dimethyl ((2S,2′S,3S,3′S)-((2S,2′S)-((5,10-dihydrochromeno[5,4,3-cde]chromene-2,7-diyl)bis(4-chloro-1H-imidazole-5,2-diyl))bis(piperidine-2,1-diyl))bis(3-methyl-1-oxopentane-1,2-diyl))dicarbamate] are within 1.5-fold of each other in EC50: 4.5 nM for the first, 4.6 nM for the second.

First: COC(=O)N[C@H](C(=O)N1CC2(CC2)C[C@H]1c1nc(Cl)c(-c2cc3c4c(c2)OCc2cc(-c5[nH]c([C@@H]6CC7(CC7)CN6C(=O)[C@@H](NC(=O)OC)C(C)C)nc5C(C)C)cc(c2-4)OC3)[nH]1)C(C)C [Compound 15, methyl ((S)-1-((S)-6-(5-(7-(4-chloro-2-((S)-5-((methoxycarbonyl)-L-valyl)-5-azaspiro[2.4]heptan-6-yl)-1H-imidazol-5-yl)-5,10-dihydrochromeno[5,4,3-cde]chromen-2-yl)-4-isopropyl-1H-imidazol-2-yl)-5-azaspiro[2.4]heptan-5-yl)-3-methyl-1-oxobutan-2-yl)carbamate]
Second: CC[C@H](C)[C@H](NC(=O)OC)C(=O)N1CC2(CC2)C[C@H]1c1nc(Cl)c(-c2cc3c4c(c2)OCc2cc(-c5[nH]c([C@@H]6CC7(CC7)CN6C(=O)[C@@H](NC(=O)OC)[C@@H](C)CC)nc5C(C)C)cc(c2-4)OC3)[nH]1 [Compound 16, methyl ((2S,3S)-1-((S)-6-(5-(7-(4-chloro-2-((S)-5-((methoxycarbonyl)-L-isoleucyl)-5-azaspiro[2.4]heptan-6-yl)-1H-imidazol-5-yl)-5,10-dihydrochromeno[5,4,3-cde]chromen-2-yl)-4-isopropyl-1H-imidazol-2-yl)-5-azaspiro[2.4]heptan-5-yl)-3-methyl-1-oxopentan-2-yl)carbamate]
The EC50 of the first is 1.6-fold higher: 3.7 nM for the first, 2.3 nM for the second.

Compared with COC(=O)N[C@H](C(=O)N1CCC[C@H]1c1nc(C2CC2)c(-c2cc3c4c(c2)OCc2cc(-c5[nH]c([C@@H]6CCCN6C(=O)[C@@H](NC(=O)OC)C(C)C)nc5C5CC5)cc(c2-4)OC3)[nH]1)C(C)C [Compound 17, dimethyl ((2S,2′S)-((2S,2′S)-((5,10-dihydrochromeno[5,4,3-cde]chromene-2,7-diyl)bis(4-cyclopropyl-1H-imidazole-5,2-diyl))bis(pyrrolidine-2,1-diyl))bis(3-methyl-1-oxobutane-1,2-diyl))dicarbamate], CCc1nc([C@@H]2CCCN2C(=O)[C@@H](NC(=O)OC)C(C)C)[nH]c1-c1cc2c3c(c1)OCc1cc(-c4[nH]c([C@@H]5CCCN5C(=O)[C@@H](NC(=O)OC)C(C)C)nc4CC)cc(c1-3)OC2 [Compound 18, dimethyl ((2S,2′S)-((2S,2′S)-((5,10-dihydrochromeno[5,4,3-cde]chromene-2,7-diyl)bis(4-ethyl-1H-imidazole-5,2-diyl))bis(pyrrolidine-2,1-diyl))bis(3-methyl-1-oxobutane-1,2-diyl))dicarbamate] is 3.4-fold higher in EC50: 74.5 nM for the first, 255 nM for the second. The first is the more potent here.

Compared with COC(=O)N[C@H](C(=O)N1CCC[C@H]1c1nc(C(C)C)c(-c2cc3c4c(c2)OCc2cc(-c5[nH]c([C@@H]6CCCN6C(=O)[C@@H](NC(=O)OC)C(C)C)nc5C(C)C)cc(c2-4)OC3)[nH]1)C(C)C [Compound 19, dimethyl ((2S,2′S)-((2S,2′S)-((5,10-dihydrochromeno[5,4,3-cde]chromene-2,7-diyl)bis(4-isopropyl-1H-imidazole-5,2-diyl))bis(pyrrolidine-2,1-diyl))bis(3-methyl-1-oxobutane-1,2-diyl))dicarbamate], CC[C@H](C)[C@H](NC(=O)OC)C(=O)N1CCC[C@H]1c1nc(Br)c(-c2cc3c4c(c2)OCc2cc(-c5[nH]c([C@@H]6CCCN6C(=O)[C@@H](NC(=O)OC)[C@@H](C)CC)nc5Br)cc(c2-4)OC3)[nH]1 [Compound 24, dimethyl ((2S,2′S,3S,3′S)-((2S,2′S)-((5,10-dihydrochromeno[5,4,3-cde]chromene-2,7-diyl)bis(4-bromo-1H-imidazole-5,2-diyl))bis(pyrrolidine-2,1-diyl))bis(3-methyl-1-oxopentane-1,2-diyl))dicarbamate] is 7.2-fold lower in EC50: 15.8 nM for the first, 2.2 nM for the second.

Compared with COC(=O)N[C@H](C(=O)N[C@H](c1nc(Cl)c(-c2cc3c4c(c2)OCc2cc(-c5[nH]c([C@@H](NC(=O)[C@@H](NC(=O)OC)C(C)C)C(C)(C)C)nc5Cl)cc(c2-4)OC3)[nH]1)C(C)(C)C)C(C)C [Compound 20, dimethyl ((2S,2′S)-(((1S,1′S)-((5,10-dihydrochromeno[5,4,3-cde]chromene-2,7-diyl)bis(4-chloro-1H-imidazole-5,2-diyl))bis(2,2-dimethylpropane-1,1-diyl))bis(azanediyl))bis(3-methyl-1-oxobutane-1,2-diyl))dicarbamate], CC[C@H](C)[C@H](NC(=O)OC)C(=O)N1CCC[C@H]1c1ncc(-c2cc3c4c(c2)OCc2cc(-c5[nH]c([C@@H]6CCCN6C(=O)[C@@H](NC(=O)OC)[C@@H](C)CC)nc5Cl)cc(c2-4)OC3)[nH]1 [Compound 22, methyl ((2S,3S)-1-((S)-2-(5-(7-(4-chloro-2-((S)-1-((methoxycarbonyl)-L-isoleucyl)pyrrolidin-2-yl)-1H-imidazol-5-yl)-5,10-dihydrochromeno[5,4,3-cde]chromen-2-yl)-1H-imidazol-2-yl)pyrrolidin-1-yl)-3-methyl-1-oxopentan-2-yl)carbamate] is lower in EC50: greater than 368 nM for the first, 14.1 nM for the second.

First: COC(=O)N[C@H](C(=O)N1[C@@H](C)CC[C@H]1c1nc(Cl)c(-c2cc3c4c(c2)OCc2cc(-c5[nH]c([C@@H]6CC[C@H](C)N6C(=O)[C@@H](NC(=O)OC)C6C[C@@H](C)O[C@H](C)C6)nc5Cl)cc(c2-4)OC3)[nH]1)C1C[C@@H](C)O[C@H](C)C1 (stereo partly drawn) [Compound 21, dimethyl ((1S,1′S)-((2S,2′S,5S,5′S)-((5,10-dihydrochromeno[5,4,3-cde]chromene-2,7-diyl)bis(4-chloro-1H-imidazole-5,2-diyl))bis(2-methylpyrrolidine-5,1-diyl))bis(1-((2R,6R)-2,6-dimethyltetrahydro-2H-pyran-4-yl)-2-oxoethane-2,1-diyl))dicarbamate]
Second: COC(=O)N[C@H](C(=O)N1CCC[C@H]1c1nc(Cl)c(-c2cc3c4c(c2)OCc2cc(-c5[nH]c([C@@H]6CCCN6C(=O)[C@@H](NC(=O)OC)c6ccccc6)nc5Cl)cc(c2-4)OC3)[nH]1)c1ccccc1 [Compound 23, dimethyl ((1S,1′S)-((2S,2′S)-((5,10-dihydrochromeno[5,4,3-cde]chromene-2,7-diyl)bis(4-chloro-1H-imidazole-5,2-diyl))bis(pyrrolidine-2,1-diyl))bis(2-oxo-1-phenylethane-2,1-diyl))dicarbamate]
The EC50 of the first is 5.6-fold lower: 9.3 nM for the first, 52.4 nM for the second.
